Data as given in paper PMC9270327 (Communications Biology, 2022).
Structures can show the parent of a compound that is named as a salt. Where two headings read alike, the source gives them in different places.

Experiments:
[1] = test system: lentiviral pseudoparticles carrying SARS-CoV-2 Delta (B.1.617.2) spike, Caco-2 cells; type: cell-based; details: Fig. 5d; compound 50000 nM; […]
[2] = test system: SARS-CoV-2 Wuhan-Hu-1, Caco-2 cells; type: cell-based
[3] = test system: SARS-CoV-2 Alpha (B.1.1.7), Caco-2 cells; type: cell-based
TMPRSS2 = TMPRSS2 (Homo sapiens, UniProt O15393); assay: Cell culture medium stability: residual TMPRSS2 inhibition after incubation in medium
Sequence of TMPRSS2 (O15393 whole entry): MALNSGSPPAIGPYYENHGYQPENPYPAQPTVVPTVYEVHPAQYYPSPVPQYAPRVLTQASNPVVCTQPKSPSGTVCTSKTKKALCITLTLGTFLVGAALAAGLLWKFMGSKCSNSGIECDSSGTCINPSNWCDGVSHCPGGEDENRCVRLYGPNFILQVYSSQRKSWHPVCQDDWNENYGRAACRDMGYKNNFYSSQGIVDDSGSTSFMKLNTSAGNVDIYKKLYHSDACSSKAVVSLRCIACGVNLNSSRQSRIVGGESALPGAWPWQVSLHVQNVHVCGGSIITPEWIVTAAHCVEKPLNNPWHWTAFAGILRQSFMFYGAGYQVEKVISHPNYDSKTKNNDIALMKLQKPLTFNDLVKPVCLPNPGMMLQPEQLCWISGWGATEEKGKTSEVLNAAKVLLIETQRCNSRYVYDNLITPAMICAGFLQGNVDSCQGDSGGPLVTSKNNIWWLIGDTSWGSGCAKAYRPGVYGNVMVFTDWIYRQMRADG
Procedure: The activity of the compounds against the recombinant human enzymes was determined in enzyme inhibition assays. […] The measurements were performed on a Tecan infinite® M1000 and the fluorescence intensity was measured by exciting the AMC fluorophore at 380 nm wavelength and recording emission at 460 nm wavelength. […] Fluorescence intensities and absorption were measured every 2 min for 2 h or as endpoint after 2 h. […] To determine the IC50 values, the concentration-response data were plotted with the program GraphPad prism version 8.4.2 (San Diego, California) and a nonlinear regression fit with the equation [Inhibitor] vs. normalized response was applied. The inhibitory constant Ki was calculated from the IC50 values using the Cheng–Prusoff equation (Ki = IC50/[S]/KM) for competitive reversible inhibitors[66].
The stability of the inhibitors was measured according to a modified procedure from ref. [67]. […] At indicated timepoints, 100 µL samples were taken and mixed with 200 µL of ethanol to precipitate proteins. […] The supernatant was aspirated and analyzed using analytical HPLC. The residual inhibitory constants Ki after incubation was assessed by mixing serial dilutions of the inhibitor with recombinant TMPRSS2 as described above.
were mixed with recombinant TMPRSS2, followed by the addition of the fluorogenic reference
Shown are the means ± SD of n=1 experiment performed in triplicates.

Which results are given for `CN(C)C(=O)COC(=O)Cc1ccc(OC(=O)c2ccc(NC(=N)N)cc2)cc1` [CM, camostat mesylate, reference compound]?
SARS-CoV-2 spike driven entry, Mean (0 nM = 100) [1]: 0.6818; IC50 ([2]; read-out: IC50 SARS-CoV-2 Wuhan-Hu-1): 3.62 µM; IC50 ([2]; read-out: IC50 SARS-CoV-2 Wuhan-Hu-1 (text)): 3.6 µM; IC50 ([3]; read-out: IC50 SARS-CoV-2 Alpha): 16.4 µM; IC50 ([3]; read-out: IC50 SARS-CoV-2 Alpha (text)): 16.4 µM; Residual TMPRSS2 activity, Mean (0 nM = 100) (TMPRSS2; inhibitor 0.0167 nM, 0 min in cell culture medium): 104.51; Residual TMPRSS2 activity, Mean (0 nM = 100) (TMPRSS2; inhibitor 0.0167 nM, 30 min in cell culture medium): 108.071; Residual TMPRSS2 activity, Mean (0 nM = 100) (TMPRSS2; inhibitor 0.0167 nM, 60 min in cell culture medium): 94.6283; Residual TMPRSS2 activity, Mean (0 nM = 100) (TMPRSS2; inhibitor 0.0167 nM, 120 min in cell culture medium): 101.99; Residual TMPRSS2 activity, Mean (0 nM = 100) (TMPRSS2; inhibitor 0.0167 nM, 24 h in cell culture medium): 104.987; Residual TMPRSS2 activity, Mean (0 nM = 100) (TMPRSS2; inhibitor 0.0167 nM, 10 d in cell culture medium): 98.7798; Residual TMPRSS2 activity, Mean (0 nM = 100) (TMPRSS2; inhibitor 0.0167 nM, positive ctrl): 112.676; Residual TMPRSS2 activity, Mean (0 nM = 100) (TMPRSS2; inhibitor 0.167 nM, 0 min in cell culture medium): 93.733; Residual TMPRSS2 activity, Mean (0 nM = 100) (TMPRSS2; inhibitor 0.167 nM, 30 min in cell culture medium): 95.4083; Residual TMPRSS2 activity, Mean (0 nM = 100) (TMPRSS2; inhibitor 0.167 nM, 60 min in cell culture medium): 77.5396; Residual TMPRSS2 activity, Mean (0 nM = 100) (TMPRSS2; inhibitor 0.167 nM, 120 min in cell culture medium): 90.8064; Residual TMPRSS2 activity, Mean (0 nM = 100) (TMPRSS2; inhibitor 0.167 nM, 24 h in cell culture medium): 102.761; Residual TMPRSS2 activity, Mean (0 nM = 100) (TMPRSS2; inhibitor 0.167 nM, 10 d in cell culture medium): 99.2067; Residual TMPRSS2 activity, Mean (0 nM = 100) (TMPRSS2; inhibitor 0.167 nM, positive ctrl): 96.1679; Residual TMPRSS2 activity, Mean (0 nM = 100) (TMPRSS2; inhibitor 1.665 nM, 0 min in cell culture medium): 49.6948; Residual TMPRSS2 activity, Mean (0 nM = 100) (TMPRSS2; inhibitor 1.665 nM, 30 min in cell culture medium): 47.8364; Residual TMPRSS2 activity, Mean (0 nM = 100) (TMPRSS2; inhibitor 1.665 nM, 60 min in cell culture medium): 26.9293; Residual TMPRSS2 activity, Mean (0 nM = 100) (TMPRSS2; inhibitor 1.665 nM, 120 min in cell culture medium): 28.8645; Residual TMPRSS2 activity, Mean (0 nM = 100) (TMPRSS2; inhibitor 1.665 nM, 24 h in cell culture medium): 90.2986; Residual TMPRSS2 activity, Mean (0 nM = 100) (TMPRSS2; inhibitor 1.665 nM, 10 d in cell culture medium): 96.8623; Residual TMPRSS2 activity, Mean (0 nM = 100) (TMPRSS2; inhibitor 1.665 nM, positive ctrl): 28.3437; Residual TMPRSS2 activity, Mean (0 nM = 100) (TMPRSS2; inhibitor 16.65 nM, 0 min in cell culture medium): 3.839; Residual TMPRSS2 activity, Mean (0 nM = 100) (TMPRSS2; inhibitor 16.65 nM, 30 min in cell culture medium): 20.3269; Residual TMPRSS2 activity, Mean (0 nM = 100) (TMPRSS2; inhibitor 16.65 nM, 60 min in cell culture medium): 1.937; Residual TMPRSS2 activity, Mean (0 nM = 100) (TMPRSS2; inhibitor 16.65 nM, 120 min in cell culture medium): 2.211; Residual TMPRSS2 activity, Mean (0 nM = 100) (TMPRSS2; inhibitor 16.65 nM, 24 h in cell culture medium): 42.5007; Residual TMPRSS2 activity, Mean (0 nM = 100) (TMPRSS2; inhibitor 16.65 nM, 10 d in cell culture medium): 95.3646; Residual TMPRSS2 activity, Mean (0 nM = 100) (TMPRSS2; inhibitor 16.65 nM, positive ctrl): 3.3573; Residual TMPRSS2 activity, Mean (0 nM = 100) (TMPRSS2; inhibitor 166.5 nM, 0 min in cell culture medium): -1.499; Residual TMPRSS2 activity, Mean (0 nM = 100) (TMPRSS2; inhibitor 166.5 nM, 30 min in cell culture medium): -2.333; Residual TMPRSS2 activity, Mean (0 nM = 100) (TMPRSS2; inhibitor 166.5 nM, 60 min in cell culture medium): -2.406; Residual TMPRSS2 activity, Mean (0 nM = 100) (TMPRSS2; inhibitor 166.5 nM, 120 min in cell culture medium): -2.5978; Residual TMPRSS2 activity, Mean (0 nM = 100) (TMPRSS2; inhibitor 166.5 nM, 24 h in cell culture medium): 5.263; Residual TMPRSS2 activity, Mean (0 nM = 100) (TMPRSS2; inhibitor 166.5 nM, 10 d in cell culture medium): 97.9296; Residual TMPRSS2 activity, Mean (0 nM = 100) (TMPRSS2; inhibitor 166.5 nM, positive ctrl): -2.042; Residual TMPRSS2 activity, Mean (0 nM = 100) (TMPRSS2; inhibitor 1665 nM, 0 min in cell culture medium): -4.334; Residual TMPRSS2 activity, Mean (0 nM = 100) (TMPRSS2; inhibitor 1665 nM, 30 min in cell culture medium): -4.917; Residual TMPRSS2 activity, Mean (0 nM = 100) (TMPRSS2; inhibitor 1665 nM, 60 min in cell culture medium): -4.534; Residual TMPRSS2 activity, Mean (0 nM = 100) (TMPRSS2; inhibitor 1665 nM, 120 min in cell culture medium): -4.182; Residual TMPRSS2 activity, Mean (0 nM = 100) (TMPRSS2; inhibitor 1665 nM, 24 h in cell culture medium): 0.9545; Residual TMPRSS2 activity, Mean (0 nM = 100) (TMPRSS2; inhibitor 1665 nM, 10 d in cell culture medium): 88.1928; Residual TMPRSS2 activity, Mean (0 nM = 100) (TMPRSS2; inhibitor 1665 nM, positive ctrl): -4.2458
